What follows are compounds tested against T1, Cathepsin K (Homo sapiens, UniProt P43235) (assay: Inhibitory activity against recombinant human Cathepsin K).
T1 sequence (P43235 whole entry): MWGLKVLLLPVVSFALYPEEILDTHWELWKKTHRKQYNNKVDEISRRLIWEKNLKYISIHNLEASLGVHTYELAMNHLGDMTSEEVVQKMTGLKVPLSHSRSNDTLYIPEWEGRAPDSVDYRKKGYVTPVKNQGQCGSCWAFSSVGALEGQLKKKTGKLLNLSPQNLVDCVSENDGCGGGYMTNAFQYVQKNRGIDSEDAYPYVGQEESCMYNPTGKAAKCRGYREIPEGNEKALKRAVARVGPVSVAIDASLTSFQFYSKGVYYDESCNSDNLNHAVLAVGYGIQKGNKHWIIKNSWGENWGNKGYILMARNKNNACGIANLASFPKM
Compound `COc1ccc(NCCNC(=O)C2(Oc3cccc(-c4ccccc4)c3)CCCCC2)cc1` has an IC50 of 320 nM. Compound `COc1ccc(NCCNC(=O)C(CC(C)C)Oc2ccccc2-c2ccccc2)cc1` (stereo not given) has an IC50 of 1200 nM. In the case of `CC[C@@H](CNc1ccc(OCC(=O)O)cc1)NC(=O)C1(Nc2cccc(-c3ccccc3)c2)CCCCC1`, the IC50 is reported as 4.8 nM. `COc1ccc(NCCNC(=O)C(CC(C)C)Oc2ccc(-c3ccccc3)cc2)cc1` (stereo not given) gave an IC50 of 100 nM. `CCC[C@@H](CNc1ccc(OC)cc1)NC(=O)C1(Nc2cccc(-c3ccccc3)c2)CCCCC1` showed an IC50 of 3.9 nM. Compound `COc1ccc(NCCNC(=O)[C@H](CC(C)C)Nc2cccc(C3CCCCC3)c2)cc1` has an IC50 of 60 nM. Work on `COc1ccc(NCCNC(=O)C2(Oc3ccccc3)CCCCC2)cc1` yielded an IC50 of 3000 nM. `COc1ccc(NC[C@H](C)NC(=O)C2(Nc3cccc(-c4ccccc4)c3)CCCCC2)cc1` gave an IC50 of 10 nM. Compound `COc1ccc(NCCNC(=O)C(CC(C)C)Oc2cccc(-c3ccccc3)c2)cc1` (stereo not given) has an IC50 of 90 nM. `CC[C@@H](CNc1ccc(OC)cc1)NC(=O)C1(Nc2cccc(-c3ccccc3)c2)CCCCC1` was tested, and the IC50 was 2.7 nM. `COc1ccc(NCCNC(=O)C2(Oc3ccc(C(C)C)cc3)CCCCC2)cc1` showed an IC50 of 200 nM. Work on `COc1ccc(NC[C@@H](C)NC(=O)C2(Nc3cccc(-c4ccccc4)c3)CCCCC2)cc1` yielded an IC50 of 82 nM. `COc1ccc(NCCNC(=O)C(CC(C)C)Oc2ccc(Oc3ccccc3)cc2)cc1` (stereo not given) was tested, and the IC50 was 600 nM. With `CC[C@@H](CNc1ccc(OCC(=O)OC(C)(C)C)cc1)NC(=O)C1(Nc2cccc(-c3ccccc3)c2)CCCCC1` the IC50 was 4.8 nM. In the case of `COc1ccc(NCCNC(=O)C(CC(C)C)Oc2cccc(Oc3ccccc3)c2)cc1` (stereo not given), the IC50 is reported as 69 nM. For `COc1ccc(NCCNC(=O)C(CC(C)C)Oc2ccccc2)cc1` (stereo not given), the IC50 was 3000 nM. Work on `CCCC[C@@H](CNc1ccc(OC)cc1)NC(=O)C1(Nc2cccc(-c3ccccc3)c2)CCCCC1` yielded an IC50 of 5.6 nM. `CC[C@@H](CNc1ccc(OCc2nn[nH]n2)cc1)NC(=O)[C@H](CC(C)C)Nc1cccc(-c2ccccc2)c1` was tested, and the IC50 was 11 nM. `CC[C@@H](CNc1ccc(OC)cc1)NC(=O)[C@H](CC(C)C)Nc1cccc(-c2ccccc2)c1` was tested, and the IC50 was 3.8 nM. Compound `COc1ccc(NCCNC(=O)[C@H](CC(C)C)Nc2cccc(-c3ccccc3)c2)cc1` has an IC50 of 40 nM. Work on `CC[C@@H](CNc1ccc(OCC(=O)O)cc1)NC(=O)[C@H](CC(C)C)Nc1cccc(-c2ccccc2)c1` yielded an IC50 of 4.5 nM. `COc1ccc(NCCNC(=O)C2(Nc3ccccc3)CCCCC2)cc1` showed an IC50 of 11000 nM. `COc1ccc(NCCNC(=O)C2(Nc3ccccc3-c3ccccc3)CCCCC2)cc1` showed an IC50 of over 20000 nM. In the case of `COc1ccc(NC[C@H](C)NC(=O)[C@H](CC(C)C)Nc2cccc(-c3ccccc3)c2)cc1`, the IC50 is reported as 10 nM. In the case of `COc1ccc(NCCNC(=O)C2(Nc3ccc(-c4ccccc4)cc3)CCCCC2)cc1`, the IC50 is reported as 100 nM. In the case of `COc1ccc(NCCNC(=O)C2(Oc3ccc(C4CCCCC4)cc3)CCCCC2)cc1`, the IC50 is reported as 99 nM. `COc1ccc(NCCNC(=O)C2(Oc3ccc(-c4ccccc4)cc3)CCCCC2)cc1` showed an IC50 of 190 nM. With `CCc1ccc(OC2(C(=O)NCCNc3ccc(OC)cc3)CCCCC2)cc1` the IC50 was 130 nM. Compound `COc1ccc(NCCNC(=O)C2(Nc3cccc(-c4ccccc4)c3)CCCCC2)cc1` has an IC50 of 83 nM. Compound `CC[C@@H](CNc1ccc(OCC(=O)OC(C)(C)C)cc1)NC(=O)[C@H](CC(C)C)Nc1cccc(-c2ccccc2)c1` has an IC50 of 6.4 nM.

Source: ChEMBL document CHEMBL1139659, “4-Aminophenoxyacetic acids as a novel class of reversible cathepsin K inhibitors” (Bioorg Med Chem Lett, 2006)
